{"source": "ChEMBL document CHEMBL1149748", "about": "“Studies on Formosan soft corals. II. Cytotoxic cembranolides from the soft coral Lobophytum michaelae” (1992)", "type_in_all_cases": "functional", "key": {"A549": {"tested_on": "A549", "experiment": "Cytotoxicity against human A549 cells after 6 days by MTT assay", "details": "A549, 144 h, read-out: ED50 (the source's name)"}, "P388": {"tested_on": "P388", "experiment": "Cytotoxicity against mouse P388 cells after 3 days by MTT assay", "details": "P388, 72 h, read-out: ED50 (the source's name)"}, "HT-29": {"tested_on": "HT-29", "experiment": "Cytotoxicity against human HT-29 cells after 6 days by MTT assay", "details": "HT-29, 144 h, read-out: ED50 (the source's name)"}, "KB": {"tested_on": "KB", "experiment": "Cytotoxicity against human KB cells after 3 days by MTT assay", "details": "72 h, read-out: ED50 (the source's name)"}}, "data": [{"molecule": "C=C1C(=O)O[C@@H]2[C@H]1[C@H](OC(C)=O)C/C(C)=C/C[C@H](OC(C)=O)/C(C)=C/C[C@@H](OC(C)=O)[C@]1(C)O[C@@H]21", "note": "[CRASSOLIDE]", "values": [{"measurement": "EC50", "setting": "A549", "value": 0.39, "unit": "µg/mL"}, {"measurement": "EC50", "setting": "P388", "value": 0.08, "unit": "µg/mL"}, {"measurement": "EC50", "setting": "HT-29", "value": 0.26, "unit": "µg/mL"}, {"measurement": "EC50", "setting": "KB", "value": 0.85, "unit": "µg/mL"}]}, {"molecule": "C=C1C(=O)O[C@@H]2[C@H]1[C@@H](OC(C)=O)C/C(C)=C/[C@@H](OC(C)=O)C/C(C)=C/CC[C@@]1(C)O[C@H]21", "note": "[LOBOMICHAOLIDE]", "values": [{"measurement": "EC50", "setting": "A549", "value": 0.38, "unit": "µg/mL"}, {"measurement": "EC50", "setting": "P388", "value": 0.34, "unit": "µg/mL"}, {"measurement": "EC50", "setting": "HT-29", "value": 0.37, "unit": "µg/mL"}, {"measurement": "EC50", "setting": "KB", "value": 0.59, "unit": "µg/mL"}]}]}
